Test results from US20240197890A1, “FLAVONE DERIVATIVES AND USES IN TARGETING CK2-MEDIATED DISEASES AND CONDITIONS” (Salk Institute for Biological Studies, priority 2020, published 2024).

What was measured:
[1] = test system: CK2 Y255; assay: Immunofluorescence of CK2 Y255 phosphorylation in nuclei of primary human astrocytes; type: cell-based; conditions: 20 μM, 5 h
Protocol: (§1) Immunotluorescence. […] After treatment, cells were fixed with 4% paraformaldehyde solution for 20 min at room temperature and washed 3× with DPBS for 10 min each. The cells were permeabilized using 5% horse serum and 10% Triton X in DPBS for 15 min at room temperature and blocked with 5% horse serum in PBS for 30 min at room temperature. Cells were incubated with primary antibodies in blocking buffer either overnight at 4° C. or for 2 hours at room temperature. After incubation, cells were washed 3× with PBS, blocked using 5% horse serum in PBS for 30 min at room temperature, and incubated with Cy3 red-labeled or AF488 green-labeled secondary antibodies diluted in blocking buffer for 1 hour at room temperature. The cells were washed once with PBS for 10 min, then counter-stained with DAPI. The cells were washed 3× with PBS and mounted with glass coverslips and Immu-Mount solution. Images were obtained with the Zeiss fluorescent microscope. […]

[2] = test system: IκB S32; assay: Immunoblot of IκB S32 in IL1-β-stimulated astrocytes; type: cell-based, human; conditions: after 5 hours
Protocol: Western blotting. […] Cells were dissociated with 1:1 Accutase:papain for 3 min at rt, pelleted for 5 min at 800 g, and washed twice with cold DPBS. Pellets were lysed with RIPA buffer (Sigma R0278) supplemented with Halt protease inhibitor cocktail (Thermo Fisher 78445) and clarified by centrifugation (16,000 g, 10 min, 4° C.). Protein concentration was determined by BCA assay (Thermo Fisher). Proteins were denatured in 1×LDS Buffer and 2.5% beta-mercaptoethanol (X) for 10 min at 70° C., separated on Bolt 4-12% Bis-Tris Plus polyacrylamide gels (Thermo Fisher), transferred to PVDF membranes using the iBlot 2 Dry Blotting System, and blocked with 0.1% casein-PBS (Bio-Rad) for 1 h at room temperature. The blots were incubated with primary antibodies overnight at 4° C. in PBS containing 0.1% casein and 0.2% Tween-20. Antibodies used: rabbit anti-CK2a1 (Bethyl #, 1:5000), rabbit anti-CK2a2 (Bethyl #, 1:5000), mouse anti-GAPDH (Fitzgerald #10-1501, 1:20,000), mouse anti-NF-KB (CST #6956S, 1:1000), pNF-KB S529 (TFS #14-9864-82, 1:100), LC3B (CST 2775, 1:1000), ACO2 (CST 6922, 1:1000), rabbit HMGB1 (Novus #NB1002322, 1:1000), mouse anti-IκBα (CST #4814S, 1:1000), mouse anti-IκBa pS32 (SC #8404, 1:500), HA-tag (Bethyl #A190-108A, 1:20000). […] The blots were imaged using the Odyssey CLx imaging system and blots were analyzed on the ImageStudio software (LI-COR). […]

[3] = test system: 468 human kinases; conditions: testing concentration of 1 μM; cited from earlier work
[4] = test system: NF-κB pS529; assay: Immunofluorescence of NF-κB and NF-κB pS529 in activated astrocytes; type: cell-based, human
Protocol: Immunotluorescence. […] After treatment, cells were fixed with 4% paraformaldehyde solution for 20 min at room temperature and washed 3× with DPBS for 10 min each. The cells were permeabilized using 5% horse serum and 10% Triton X in DPBS for 15 min at room temperature and blocked with 5% horse serum in PBS for 30 min at room temperature. Cells were incubated with primary antibodies in blocking buffer either overnight at 4° C. or for 2 hours at room temperature. After incubation, cells were washed 3× with PBS, blocked using 5% horse serum in PBS for 30 min at room temperature, and incubated with Cy3 red-labeled or AF488 green-labeled secondary antibodies diluted in blocking buffer for 1 hour at room temperature. The cells were washed once with PBS for 10 min, then counter-stained with DAPI. The cells were washed 3× with PBS and mounted with glass coverslips and Immu-Mount solution. Images were obtained with the Zeiss fluorescent microscope. The following primary antibodies were used: rabbit anti-NF-κB (1:400; CST), mouse anti-phospho NF-κB S529 (20 ug/ml; Thermo Fisher), rabbit anti-CK2A1 (1:500; Bethyl), mouse anti-IKb alpha (1:400; CST), mouse anti-phospho IKb alpha (1:50; Santa Cruz), rabbit anti-phospho CK2A1 (1:25; Thermo Fisher), rabbit anti-phospho Cdc37 (1:50; Novus), mouse anti-phospho NF-κB S529 (1:25; R&D), rabbit anti-Cdc37 (1:100; CST), mouse anti-SQSTM1 (1:50; Santa Cruz), anti rabbit-phospho NF-κB S536 (1:1600; CST), anti rabbit-Akt (pan) (1:400; CST), anti mouse-phospho Akt S473 (1:500; Sigma).
To investigate the potential effects of CK2 activity on NF-κB, NF-κB and NF-κB pS529 were measured by immunofluorescence in activated astrocytes. […] At this timepoint, NF-κB pS529 levels were similar across all treatments, possibly as a result of slower turnover by pNF-κB species.

[5] = test system: CK2; assay: CK2 kinase assay in postmortem brain lysates (Csox peptide); type: biochemical, human; conditions: pretreatment with 20 μM for 30 min
Protocol: Kinase assays. In vitro kinase assays were run using the Cysteine-Sox-Kinase Sensor AQT0696, 96 assay Kit (AssayQuant Tech, CSKS-AQT0696). Compound stocks (1.25×) at concentrations in a 2-fold dilution series were prepared in kinase reaction mixes and added in duplicate to a 384-well white-bottom NBS plates (Corning X) at 20 μL/well. Then, 5 μL active recombinant human CK2a1 kinase (Thermo Fisher PV3248, 5× in Kinase Dilution Buffer) was added to each well, quickly mixed by rotation, and incubated for 5 h at 30° C., with fluorescence readings taken every 3 min (excitation λ=365 nm, emission λ=495-505 nm) on a Promega GloMax Discover Microplate Reader. The final reaction conditions contained 10 μM AQT0696 Csox peptide, 1 mM ATP, 54 mM HEPES pH 7.5, 1.2 mM DTT, 0.012% Brij-35, 0.52 mM EGTA, 1% glycerol, 0.2 mg/mL BSA, 10 mM MgCl2, and 20 nM CK2a1. Slopes corresponding to linear reaction rates were obtained for each compound concentration (RFU/sec), normalized to DMSO controls, and IC50 values were determined by applying the dose response non-linear regression model in GraphPad Prism. […] After sonication and clarification, protein concentration was measured by BCA Assay. CK2 activity was measured as described above, except lysates were used instead of purified kinase at 2 μL/well (˜0.3-0.4 ug protein per reaction). […]

[6] = test system: IL6 and IL8 expression in astrocytes; assay: Activation assay, ddPCR of cytokine expression in IL1-β-activated astrocytes; type: cell-based, human; conditions: 5 h treatment
Protocol: Activation assays and ddPCR. HCA or H1-derived astrocytes were treated with vehicle (DMSO) or 20 μM compound and stimulated with IL1-B 10 ng/mL for 5 h. Cells were scraped into RNA-Bee and total RNA was purified using the Direct-zol RNA kit (Zymo Research). RNA concentration was measured using Nanodrop and RNA was reverse transcribed into cDNA using the High Capacity cDNA Reverse Transcriptase Kit (Applied Biosystems). Reaction mixes consisting of TaqMan FAM probe (IL6, IL8, CSNK2A1, CSNK2A2), control TaqMan ACTB-VIC probe (TFS 4326315E), ddPCR Supermix for Probes (Bio-Rad 186-3024), and cDNA were formed into oil droplets using the QX200 Droplet Generator. After amplification (Bio-Rad C1000 Touch Thermal Cycler) according to manufacturer's instructions, the plate was read in the QX200 Droplet Reader.

[7] = test system: AKT pS473; assay: Immunofluorescence of AKT pS473 in IL1β-stimulated primary astrocytes; type: cell-based; conditions: IL1-β for 5 h
Protocol: as §1

[8] = test system: BBB organoids; assay: BBB permeability and anti-inflammatory activity in BBB organoids; type: cell-based; conditions: 6.7 μM, 3 days, compared to FNH79 at 20 μM
Protocol: BBB permeability of IN2.2 was also determined in BBB organoids (Cho et al., Nat Commun 2017, 8:15623). Pools of -50 organoids were treated for 3 days with IL1-β and DMSO or compounds (FNH79 at 20 μM, IN2.2 at 6.7 μM) and collected in RNA-Bee reagent (Amsbio). qPCR for IL6 and IL8 expression was performed (mean±s.d., n=3).

[9] = test system: CK2; assay: Target engagement in mouse brain homogenates (Cyclex CK2 ELISA kit); type: in vivo; conditions: single dose 25.6 mg/kg i.p., in comparison to FNH79
Protocol: Animals. All animal procedures were approved by the Institutional Animal Care and Use Committee of The Salk Institute for Biological Studies. Wildtype male C57BL/6 mice (2-3 months old) were housed under standard 12-h light/dark cycles with free access to food and water. IN2.2 or vehicle (3% hydroxypropylmethylcellulose, HPMC) was injected as a single dose (25.6 mg/kg) i.p. mice (n=6 and n=3 controls). Blood was collected at t=0, 0.5, 1, 2, 4, 8, 24 via retro-orbital bleeding and allowed to clot at room temperature to separate serum and clarified. At the final timepoint, mice were anesthetized with ketamine and tissues were harvested. Drug concentrations in serum and tissues were determined by LC/MS-MS. Target engagement in the brain was determined in brain homogenates from treated animals using the Cyclex CK2 ELISA kit. […] Tolerability was assessed mice (mean±s.d., n=5) by injecting with JKT56/IN3.2 daily at 20 mg/kg and monitoring closely for any signs of toxicity based on body weight changes and behavior/appearance (e.g. signs of distress, rough coat, squinty eyes, hunched posture).
IN2.2 or vehicle (3% wt/wt hydroxpropymethylcellulose aqueous solution) was injected as a single dose (25.6 mg/kg) i.p. in 2-3 month old C57Bl/6Nhsd mice (n=6 and n=3 controls). […] Drug concentrations in serum and tissues were determined by LC/MS-MS. […]

SMILES | pCK2/CK2 in nuclei [1] | IκB S32 levels [2] | number of other kinases inhibited >90% [3] | IL1-β-induced increase of NF-κB nuclear intensity ([4]; after 1 h) | pNF-κB nuclear intensity relative to total NF-κB ([4]; after 5 hours) | CK2-specific fluorescence of phosphorylated Csox peptide in brain lysates [5] | expression of IL6 and IL8 in IL1-β-activated astrocytes [6] | AKT pS473 levels [7] | IL6 and IL8 expression ([8]; IL1-β) | BBB permeability [8] | target engagement in brain [9]
O=C(O)c1ccc2c(c1)nc(Nc1cccc(Cl)c1)c1ccncc12 [CX4945] | reduced | decreased | 28 | blocked | reduced | blocked | successfully blocked | reduced | – | – | –
COc1cc(-c2cc(=O)c3cc(Br)cc(Br)c3o2)ncc1O [IN2.2] | – | – | – | – | – | – | – | – | reduction | superior permeability | superior target engagement
